Data from patent US11273193B2, “Synergistic composition as a promoter of autophagy” (GIULIANI S.P.A., priority 2017, dated 2022).
“Also recorded” adds a separate entry of the source.

Assays:
Type in all cases: cell-based, human
[1] = tested on: LC3; assay: Live fluorescent microscopy of LC3-RFP dots (autophagosome accumulation) in U2OS cells; conditions: U2OS cells transduced with LC3-RFP, 6 h; biotin 200 ng/ml, Galeopsis dry extract 100 ng/ml, spermidine 10 μM; FIG. 1
From the text: In order to evaluate whether biotin and/or Galeopsis segetum extract may affect autophagy, the inventors monitored the accumulation of autophagosome in cultured U2OS cells by live fluorescent microscopy (Klionsky D J, Abdelmohsen K, Abe A, Abedin M J, Abeliovich H, Acevedo Arozena A, et al. Guidelines for the use and interpretation of assays for monitoring autophagy. Autophagy. 2016; 12(1):1-222). Thus, cells were trasduced with construct containing the autophagy protein, LC3, fused with a Red Fluorescent Protein (RFP). Then, accumulation of fluorescent LC3 dots upon addition of biotin (200 ng/ml) or Galeopsis dry extract (100 ng/ml) was monitored by acquiring images every 30 min for 6 h. Spermidine (10 μM) was adopted as a positive control of an autophagy inducer compound (Pietrocola F, Lachkar S, Enot D, Niso-Santano M, Bravo-San Pedro J, Sica V, et al. Spermidine induces autophagy by inhibiting the acetyltransferase EP300. Cell Death & Differentiation. 2015; 22(3):509-16).
Both biotin and Galeopsis segetum dry extract produced a similar accumulation of LC3-red dots.

[2] = tested on: p62/SQSTM1; assay: Immunoblot analysis of p62 protein levels in U2OS cells; conditions: immunoblot normalized to GAPDH, spermidine 0.5 μM, biotin 19.91 ng/ml, Galeopsis 7.9 ng/ml
Procedure: U2OS cells were grown to 80% confluence in Dulbecco Modified Eagle's Medium High Glucose (4.5 g/ID-Glucose) containing 4 mM L-glutamine, 10% fetal bovine serum (FBS) and treated with Spermidine (Lot. 2010112716), Galeopsis segetum (IDN 6781), Biotin (Lot. 2014124160) or their combinations. Protein samples were extracted in RIPA buffer as previously reported (De Mei C, Ercolani L, Parodi C, Veronesi M, Vecchio C L, Bottegoni G, et al. Dual inhibition of REV-ERBβ and autophagy as a novel pharmacological approach to induce cytotoxicity in cancer cells. Oncogene. 2015; 34(20):2597-608). p62/SQSTM1 and GAPDH levels were analyzed with anti-p62/SQSTM1 and anti-GADPH specific antibodies. Immunoblot experiments were performed in TBS-T buffer containing 5% bovine serum albumin (BSA). […] and anti-GAPDH antibodies were diluted 1:1000 and 1:50000, respectively. Complementary HPR-conjugated secondary antibodies were diluted 1:10000. Upon reaction with ECL Western blotting detection reagent, chemiluminescent signals were acquired with a LAS-4000 luminescent image analyzer and optical density of specific band signal was calculated with Photoshop image analysis software. GAPDH was adopted as a loading control and GAPDH signals were used to normalize p62 protein levels among different samples.
Immunoblots were repeated at least 4 times in order to express value as mean±SEM. […]

[3] = tested on: SQSTM1/p62; assay: Live fluorescent microscopy of p62-RFP dots (autophagy-mediated p62 degradation) in U2OS cells; conditions: U2OS cells transduced with p62-RFP; FIG. 2
Procedure: U2OS cells were seeded 3000 cells/well in 48-well plates, No. 1.5 Uncoated Coverslip, 6 mm glass diameter, previously coated with gelatin solution, and transduced with 0.2 ul di baculovirus/10 000 cells containing a chimeric protein p62-Red Fluorescent Protein (p62-RFP). At 48 h post-transduction the cells were treated with Spermidine, Biotin, Galeopsis, or vehicle and monitored for 24 h using NIKON Live Cell Imaging microscopy.
Because LC3-RFP dots may also accumulate upon a blockade of the autophagic flux, the autophagy-dependent degradation of the SQSTM1/p62 protein (Klionsky D J, Abdelmohsen K, Abe A, Abedin M J, Abeliovich H, Acevedo Arozena A, et al. Guidelines for the use and interpretation of assays for monitoring autophagy. Autophagy. 2016; 12(1):1-222) was thus monitored. p62 served as a link between LC3 and ubiquitinated substrates (Pankiv S, Clausen T H, Lamark T, Brech A, Bruun J-A, Outzen H, et al. p62/SQSTM1 binds directly to Atg8/LC3 to facilitate degradation of ubiquitinated protein aggregates by autophagy. Journal of Biological Chemistry. […]
Accordingly, the effects of biotin and Galeopsis on autophagy-mediated p62 degradation was evaluated analyzing the number of p62-RFP autophagosomes by live fluorescent microscopy. […] Then, p62 fluorescent dots were monitored upon addition of biotin, Galeopsis, spermidine or vehicle.

[4] = tested on: SQSTM1; assay: Immunoblot of SQSTM1 in U2OS cells, Example 14; conditions: 100 μM, 6 h, normalized by ACTIN, FIG. 3
Procedure: (§1) The levels of lipidated LC3 and SQSTM1 in human U2OS cells treated with equimolar doses of N1-methylspermidine and spermidine were evaluated. […] Specifically cultured human U2OS cells were treated 6 h with vehicle or equimolar doses of spermidine and N^1-methylspermidine (100 μM). The levels of lipidated LC3 (LC3-II) and SQSTM1 were then assessed by immunoblotting analysis as in example 8 with specific antibody. Actin signals were adopted as a loading control. Densitometry analysis of protein signals is reported as relative protein levels normalized by ACTIN. Vehicle sample value was set to 1. Shown as mean±SEM., n=3. *P<0.05 and **P<0.01, compounds versus vehicle.

[5] = tested on: lipidated LC3 (LC3-II); assay: Immunoblot of lipidated LC3 (LC3-II) in U2OS cells, Example 14; conditions: 100 μM, 6 h, normalized by ACTIN, FIG. 3
Procedure: as §1

O=C(O)CCCC[C@@H]1SC[C@@H]2NC(=O)N[C@@H]21 [Biotin, 5-[(3aS,4S,6aR)-2-oxohexahydro-1H-thieno[3,4-d]imidazole-4-yl]pentanoic acid] was tested, and the “accumulation of fluorescent LC3 dots (autophagosomes)” value [1] was “marked accumulation of fluorescent LC3 dots”, the “Percentage of p62 reduction versus vehicle (% ± SEM)” value [2] was 21 ± 1.5% and the “reduction of p62-RFP fluorescent dots / signals versus vehicle” value [3] was “drastic reduction of p62-RFP dots; also recorded: strong reduction of p62 fluorescent signals”.
For CNCCCNCCCCN [N1-methylspermidine], the “autophagy-mediated degradation of SQSTM1 compared with vehicle” value [4] was “stimulated autophagy-mediated degradation of SQSTM1” and the “levels of the lipidated LC3-II form compared with vehicle” value [5] was “increased the levels of the lipidated LC3-II form”.
With NCCCCNCCCN [Spermidine, N′-(3-aminopropyl)butane-1,4-diamine] the “autophagy-mediated degradation of SQSTM1 compared with vehicle” value [4] was “stimulated autophagy-mediated degradation of SQSTM1”, the “accumulation of fluorescent LC3 dots (autophagosomes)” value [1] was “marked accumulation of LC3 fluorescent dots” and the “Percentage of p62 reduction versus vehicle (% ± SEM)” value [2] was 5 ± 0.11%. For the same molecule, the “levels of the lipidated LC3-II form compared with vehicle” value [5] was “increased the levels of the lipidated LC3-II form” and the “reduction of p62-RFP fluorescent dots / signals versus vehicle” value [3] was “markedly reduced p62 fluorescent dots and fluorescent signals”.
